One experiment has as its target CBP-BRD (Homo sapiens, UniProt Q92793). In words: BROMOscan ligand binding site-directed competition assay, CBP. Set-up: T7 phage display fusion with DNA tag for qPCR; purchased Eurofins Discovery (BROMOscan service); host or cells: E. coli infected with T7 phage. Here is the method:
(§1) 2. Methods and General Procedures […]
(§2) KD values were determined using BROMOscan™ technology, carried out by Eurofins […]
(§3) Discovery according to their standard protocol. Briefly E. coli were infected with T7 phage […]
(§4) strains displaying bromodomains and bromodomain protein was subsequently purified […]
(§5) through lysis, centrifugation and filtration. Affinity resins were generated by incubation of […]
(§6) streptavidin-coated magnetic beads with biotinylated small molecules or acetylated […]
(§7) peptide ligands. Binding reactions were assembled by combining the bromodomains and […]
(§8) liganded affinity beads in binding buffer (17 % SeaBlock, 0.33x PBS, 0.04 % Tween 20, […]
(§9) 0.02 % BSA, 0.004 % sodium azide and 7.4 mM DTT) with compounds (11-point, 3-fold […]
(§10) dilution series) added to give a final DMSO concentration of 0.09 %. Assay plates were […]
(§11) incubated for 1 h, prior to washing and elution of beads. The bromodomain concentration […]
(§12) in the eluates was measured by qPCR of the DNA tag on the bromodomain.
(§13) KD values were calculated with a standard dose-response curve fitted using the Hill […]
(§14) Response = Background + Signal − Background […]
(§15) The Hill Slope was set to -1 and curves fitted using a non-linear least square fit with the Levenberg-Marquardt algorithm.
(§16) Ligand efficiency (LE) was calculated as follows: LE = 1.4(pIC50)/N

For a further experiment, the target named is T1, EP300-BRD (Homo sapiens, UniProt Q09472).
T1 construct: T7 phage display fusion with DNA tag for qPCR; purchased Eurofins Discovery (BROMOscan service); host or cells: E. coli infected with T7 phage
T1 sequence (Q09472 1049-1156 limits assumed): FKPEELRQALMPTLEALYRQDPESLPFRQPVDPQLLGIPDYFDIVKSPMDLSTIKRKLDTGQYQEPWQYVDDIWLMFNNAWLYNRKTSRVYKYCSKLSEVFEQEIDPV
Briefly: BROMOscan ligand binding site-directed competition assay, EP300. Here is the method: as §1, §2, §3, §4, §5, §6, §7, §8, §9, §10, §11, §12, §13, §14, §15, §16

The next experiment has as its system LNCaP cells. In words: Cell viability (resazurin), LNCaP. The experiment is classed as cell-based. Conditions: 3 day treatment. Here is the method:
normalized to DMSO treated lanes on the same membrane. (Several compounds were
measured at the same time, so DMSO treated lanes are replicated here between
Figure S5. Anti-proliferation in additional cell lines. LNCaP (A and C) and SH-SY5Y (B)
cell viability following 3 day compound treatment, and LNCaP following 6 day treatment
(D), determined using resazurin.
After 3 days of treatment, dCE-2 only has a mild effect on the proliferation of LNCaP and
SH-SY5Y cells (Figure S5A and B).
the new CBP/EP300 PROTACs CBPD -268 and CBPD-4092,3 which have enhanced anti-
proliferative activity in LNcaP cells relative to their parent inhibitor s. However, although
these PROTACs have effects at very low concentrations, their effect plateaus and a
substantial proportion of cells remain viable at high compound concentrations. Similarly,
degradation of CBP and EP300, the maximal effect of this PROTAC is also limited under
the conditions we used (Figure S5C). Through this work it was clear to us that these […]
proliferation. […]
concentrations of CRBN, as determined through competition with acetylated peptide […]
Fluorescence (excitation = 560 nm, emission = 590 nm) was measured using a
spectraMax M5 microplate reader (Molecular Devices) and cell viability was calculated […]
values were calculated as the concentration required to inhibit cell viability to 50 % […]
(In general: Resazurin is reduced to fluorescent resorufin, in cell work by metabolically active cells.)

“Also recorded” adds a separate entry of the source. A value given as a limit tells only on which side of the number the result lay.

CBP-BRD, sequence (Q92793 1085-1192 limits assumed): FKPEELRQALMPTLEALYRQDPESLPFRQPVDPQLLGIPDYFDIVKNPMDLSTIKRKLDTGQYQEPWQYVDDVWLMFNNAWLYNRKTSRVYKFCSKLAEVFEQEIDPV

With `Cc1cc2c(NC(=O)c3cc(NC(=O)CCCCCCCCCCNc4cccc5c4C(=O)N(C4CCC(=O)NC4=O)C5=O)cc(-c4ccn(C)n4)c3)cccc2nn1` (centres unmarked) [dCE-2], the Kd was 1300 nM at CBP-BRD (BROMOscan) and > 10000 nM at EP300-BRD (BROMOscan). The “loss of potency compared to parent compound 3, CBP” value at CBP-BRD (BROMOscan KD ratio) is reported as > 40 fold. In addition, the “loss of potency compared to parent compound 3, EP300” value at EP300-BRD (BROMOscan KD ratio) is given as > 400 fold. Also, in the experiment on LNCaP cells, the “effect on proliferation of LNCaP cells” value is on record as “mild effect; also recorded: limited effect”.

What is called Kd is a measure of binding affinity in units of concentration.
